Experimental data: patent US20140120598A1 (priority 2011, published 2014)
Like-named read-outs stand apart in the source and are kept apart here.

Key:
[1] = tested on: S. cerevisiae MN8140X; conditions: 100 mM of acetic acid
Description: A medium formed of 10 g/L of a yeast extract, 20 g/L of polypeptone, 80 g/L of glucose, and 60 g/L of xylose was used as the solution using glucose and xylose as carbon sources.

[2] = tested on: ΔPHO13 strain (S. cerevisiae BY4741X with PHO13 deleted); assay type: cell-based; conditions: for amount of production of ethanol: 80 g/L xylose
Description: (§1) A solution obtained by incorporating 80 g/L of xylose into a YP medium (containing 1% of a yeast extract, 2% of peptone, and 0.5% of […]) was used as a material using xylose as a carbon source. […]

[3] = tested on: BY4741X strain (control); experiment: Fermentation with xylose as carbon source by the control strain in the presence of a fermentation inhibitor; assay type: cell-based, S. cerevisiae; conditions: 72 hours
Description: as §1

[4] = 60 mM of acetic acid, after 24 hours
[5] = 60 mM of acetic acid, after 72 hours
[6] = 30 mM of formic acid, after 24 hours
[7] = 30 mM of formic acid, after 72 hours
[8] = 60 mM of furfural versus no furfural, 72 hours
[9] = 90 mM of furfural, after 24 hours
[10] = 90 mM of furfural, after 72 hours

In the case of CC(=O)O [acetic acid], the “action in ethanol production by the yeast” value [1] is reported as “showed a fermentation inhibitory action”, the “amount of production of ethanol” value ([1]; fermentation 48 hours, 30° C.) is reported as “also suppressed” and the “consumption of glucose as a carbon source” value ([1]; fermentation 48 hours, 30° C.) is reported as “suppressed”. For the same molecule, the “resistance of the strain to the fermentation inhibitor in ethanol production using xylose as a carbon source” value [2] was “resistant”, the “amount of production of ethanol relative to control (BY4741X strain)” value [2, 4] was 2.3 times and the “amount of production of ethanol” value [2, 4] was 13 g/L. For the same molecule, the “amount of production of ethanol relative to control (BY4741X strain)” value [2, 5] was 1.4 times, the “amount of production of ethanol” value [2, 5] was 20 g/L and the “consumption rate of xylose” value ([2]; acetic acid 0, 30 and 60 mM, 72 hours) was “reduced depending on an acetic acid concentration”. For the same molecule, the “consumption rate of xylose” value ([3]; acetic acid 0, 30 and 60 mM) was “reduced depending on an acetic acid concentration”.

For O=CO [formic acid], the “resistance of the strain to the fermentation inhibitor in ethanol production using xylose as a carbon source” value [2] was “resistant”, the “amount of production of ethanol relative to control (BY4741X strain)” value [2, 6] was 4.1 times and the “amount of production of ethanol” value [2, 6] was 6 g/L. The “amount of production of ethanol relative to control (BY4741X strain)” value [2, 7] was 5.5 times, the “amount of production of ethanol” value [2, 7] was 11 g/L and the “xylose consumption and ethanol production versus inhibitor concentration” value ([2]; formic acid 0, 15 and 30 mM, 72 hours) was “a tendency similar to that in the case of acetic acid was observed”.

With O=Cc1ccco1 [furfural] the “resistance of the strain to the fermentation inhibitor in ethanol production using xylose as a carbon source” value [2] was “resistant”, the “consumption rate of xylose” value [2, 8] was “substantially the same as that in the case where furfural was not incorporated” and the ethanol-producing ability [2, 8] was “effective ethanol production was similarly observed”. For the same molecule, the “amount of production of ethanol relative to control (BY4741X strain)” value [2, 9] was 27.5 times, the “amount of production of ethanol” value [2, 9] was 21 g/L and the “amount of production of ethanol relative to control (BY4741X strain)” value [2, 10] was 5.5 times. The “amount of production of ethanol” value [2, 10] was 31 g/L and the “consumption rate of xylose” value ([3]; furfural 60 and 90 mM versus 0 mM) was “reduced”.
